This is an account of results in article PMC6149814, “Enhanced Intestinal Permeability of Bufalin by a Novel Bufalin-Peptide-Dendrimer Inclusion through Caco-2 Cell Monolayer” (Molecules : A Journal of Synthetic Chemistry and Natural …, 2017).

Data set [1] is described as follows: Cytotoxicity in Caco-2 cells by MTT assay. The data set is classed as cell-based. The settings on record: human. The method, then:
The viability of Caco-2 cells were measured after treated for 180 min with Hanks’ balanced salts solution (HBSS) (negative control), paclitaxel (positive control, 25, 50, 75 and 100 μM), BFL (50, 75, 100 and 125 μM) and BPDI (containing BFL 50, 75, 100 and 125 μM), respectively.
The cytotoxicities of free BFL and its formulation, BPDI against Caco-2 cells were tested using the 3-(4,5-dimethylthiazol-2-yl)-2,5-diphenyltetrazolium bromide (MTT) assay. Caco-2 cells at the logarithmic growth were seeded in 96-well plate at the concentration of […] and incubated in an atmosphere of 5% CO2 and 90% relative humidity at 37 °C for three days. After cells attachment, HBSS solution (negative control), paclitaxel (positive control, 25, 50, 75, and 100 μM), BFL (50, 75, 100, and 125 μM), and BPDI (containing BFL 50, 75, 100, and 125 μM) solutions were added into each well, respectively. After cells were treated for three hours, HBSS solution was removed, and cells were rinsed with PBS and incubated with 20 μL of MTT solution (0.5 mg/mL) for 4 h at 37°C and 5% CO2. Then the cells were shaken with 200 μL of DMSO for 10 min, and the absorbance was read on the microplate reader (SPECTROstar Omega, BMG LabTech GmbH, Ortenberg, Germany) at 570 nm. The viability rates were calculated by the equation: % = A/A0 × 100, wherein A was the average absorbance value of treatment group, and A0 was the average absorbance value of negative control group.
For orientation: Tetrazolium dyes change colour on reduction, which living cells bring about.

The next data set in a line: in vitro. The settings on record: human. The method, then:
(§1) Caco-2 cells (4.0 × 10^5 per mL) at the logarithmic growth were seeded into the AP (apical) side of a 24-well Transwell™ plates (Corning Inc., Cambridge, MA, USA). DMEM solution was added into the apical (AP) side (0.5 mL) and basal (BL) side (1.0 mL) of the chamber, respectively. The cell culture was maintained at 37 °C under 90% humidity and 5% CO2. The medium was refreshed every two days in the first week, and then on every day the following week. […] The cell inserts were considered as qualified for trans-membrane transport evaluation only if the resistance reached above […].
(§2) On day 21, the culture medium was removed from the AP and BL sides of the trans-well filters. The Caco-2 monolayers were rinsed twice with pre-warmed HBSS (37 °C) and incubated for 20 min. Then HBSS was removed completely. The test solution of BFL or BPDI (was added to AP (0.4 mL) or BL side (3.2 mL), and then same volume of HBSS was added to the corresponding sides (BL or AP sides). Incubation continued at 37 °C for 180 min. To evaluate the permeability of test compounds across the cell monolayer, solutions from BL (0.4 mL) or AP (3.2 mL) side were collected at different time intervals (60, 120, and 180 min), and replaced with the same volume of HBSS. The collected solutions were lyophilized and stored under −80 °C before HPLC analysis. Experiments for each time point were repeated three times and were performed on the independent chamber.
(§3) Chromatographic analysis was performed using a Alltima TM C18 column (4.6× 250 mm, 5 μm) on an Agilent 1200 liquid chromatography system, equipped with a quaternary solvent delivery system, an auto-sampler and a DAD detector. The isocratic eluting solution consists of A: 0.2% phosphoric acid and B: acetonitrile (54:46, v/v); the detection wavelength and flow rate were set at 226 nm and 1.0 mL/min, respectively. The HPLC analysis will be run for 25 min.
(§4) Apparent permeability values (Papp) for the test compound was calculated according to the equation [22] Papp = (dQ/dt)/(AC0) where Papp is the apparent permeability (cm/s), dQ/dt is the appearance rate of the test compound on the receiver side (μg/s), A represents the surface area of carbon ester membrane (cm^2), and C0 is the initial concentration of compounds on the given sides (μg/L).

A further data set relates to Caco-2 cell monolayer. The data set is described as follows: in vitro. The method, then:
as §1, §2, §3, §4

Broadly, the Papp A→B is how fast a substance crosses the layer from the apical side. Read a high Papp A→B as fast passage. A word on the Papp B→A: it is the apparent permeability from the basolateral to the apical side of a cell layer. Usually Papp stands for the rate of passage across a membrane or cell layer, normalised by area and donor concentration.

As for `C[C@]12CC[C@H](O)C[C@H]1CC[C@@H]1[C@@H]2CC[C@]2(C)[C@@H](c3ccc(=O)oc3)CC[C@]12O` [BFL, Bufalin], the viability at 180 min, 50 μM in data set [1] (Caco-2 cells, 50 μM (BPDI: containing BFL 50 μM), MTT) is 102 ± 7.2%. For the same compound, in data set [1] (Caco-2 cells, 75 μM (BPDI: containing BFL 75 μM), MTT), the viability at 180 min, 75 μM is 100 ± 8.6%. Further, the viability at 180 min, 100 μM in data set [1] (Caco-2 cells, 100 μM (BPDI: containing BFL 100 μM), MTT) was determined as 99.1 ± 8.5%. The viability at 180 min, 125 μM in data set [1] (Caco-2 cells, 125 μM (BPDI: containing BFL 125 μM), MTT) was found to be 98.9 ± 6.4%. In addition, in data set [1] (Caco-2 cells, 50, 75, 100 and 125 μM, read-out: viabilities after treatment), the viability at 180 min was > 95%. In the data set “in vitro” (Caco-2, Papp AP→BL, 50 μM, 120 min, concentration series (Table 2), n = 3), this compound returned a Papp A→B at 120 min, 50 μM of 15.8 ± 3.2 nm/s. This compound also had an apical-to-basolateral permeability (Papp A→B) at 60 min, 75 μM in “in vitro” (Caco-2, Papp AP→BL, 75 μM, 60 min, time course (Table 3), n = 3) of 15.2 ± 2.2 nm/s. Further, the apparent permeability from apical to basolateral (Papp A→B) at 120 min, 75 μM worked out at 14.7 ± 0.8 nm/s in the data set “in vitro” (Caco-2, Papp AP→BL, 75 μM, 120 min, concentration series (Table 2), n = 3) and 13.6 ± 0.8 nm/s in the data set “in vitro” (Caco-2, Papp AP→BL, 75 μM, 120 min, time course (Table 3), n = 3). In “in vitro” (Caco-2, Papp AP→BL, 75 μM, 180 min, time course (Table 3), n = 3), the Papp A→B at 180 min, 75 μM amounted to 12.8 ± 0.2 nm/s. The compound also registered a Papp A→B at 120 min, 100 μM in “in vitro” (Caco-2, Papp AP→BL, 100 μM, 120 min, concentration series (Table 2), n = 3) of 14.6 ± 0.2 nm/s. Moreover, the apparent permeability from apical to basolateral (Papp A→B) at 120 min, 125 μM in the data set “in vitro” (Caco-2, Papp AP→BL, 125 μM, 120 min, concentration series (Table 2), n = 3) was found to be 16.4 ± 1.2 nm/s. This compound had a basolateral-to-apical permeability (Papp B→A) at 120 min, 50 μM in the data set “in vitro” (Caco-2, Papp BL→AP, 50 μM, 120 min, concentration series (Table 2), n = 3) of 13.7 ± 1.8 nm/s. Also, the Papp B→A at 60 min, 75 μM in the data set “in vitro” (Caco-2, Papp BL→AP, 75 μM, 60 min, time course (Table 3), n = 3) turned out to be 11.4 ± 2.8 nm/s. Further, the Papp B→A at 120 min, 75 μM worked out at 13.2 ± 1.4 nm/s in the data set “in vitro” (Caco-2, Papp BL→AP, 75 μM, 120 min, concentration series (Table 2), n = 3) and 10.8 ± 1.7 nm/s in the data set “in vitro” (Caco-2, Papp BL→AP, 75 μM, 120 min, time course (Table 3), n = 3). This compound gave a Papp B→A at 180 min, 75 μM in “in vitro” (Caco-2, Papp BL→AP, 75 μM, 180 min, time course (Table 3), n = 3) of 9.9 ± 1.2 nm/s. Besides, the basolateral-to-apical permeability (Papp B→A) at 120 min, 100 μM in “in vitro” (Caco-2, Papp BL→AP, 100 μM, 120 min, concentration series (Table 2), n = 3) came out at 12.9 ± 1 nm/s. The Papp B→A at 120 min, 125 μM in “in vitro” (Caco-2, Papp BL→AP, 125 μM, 120 min, concentration series (Table 2), n = 3) stood at 13.5 ± 4.5 nm/s. The Papp in the data set “in vitro” (Caco-2, Papp value (range over concentrations/times, text), summary of Table 2 and Table 3) was 14.6 to 16.2 nm/s; in “in vitro” (Caco-2, apparent permeability coefficient (Papp) values (abstract), BFL in free or BPDI form) it was > 10 nm/s. Besides, the main transport mechanism entry in the data set with Caco-2 cell monolayer (Caco-2 monolayer) is on record as “passive diffusion”. In addition, the transport classification entry in the data set with Caco-2 cell monolayer (due to a Papp value of 1–10 × 10^−6 cm/s) was “moderate transport”.

In the case of `CC(=O)O[C@H]1C(=O)[C@@]2(C)[C@H]([C@H](OC(=O)c3ccccc3)[C@]3(O)C[C@H](OC(=O)[C@H](O)[C@@H](NC(=O)c4ccccc4)c4ccccc4)C(C)=C1C3(C)C)[C@]1(OC(C)=O)CO[C@@H]1C[C@@H]2O` [Paclitaxel, paclitaxel], the viability at 25 µM in data set [1] (Caco-2 cells, 25 μM, 180 min, MTT) is 65.3 ± 7.2%. Besides, the viability was 43.5 ± 5.4% in data set [1] (Caco-2 cells, 50 μM (BPDI: containing BFL 50 μM), 180 min, MTT); 34.8 ± 3.2% in data set [1] (Caco-2 cells, 75 μM (BPDI: containing BFL 75 μM), 180 min, MTT); 30.5 ± 2.6% in data set [1] (Caco-2 cells, 100 μM (BPDI: containing BFL 100 μM), 180 min, MTT).
